From publication PMC4151019 (Clinical Pharmacology and Therapeutics, 2014)
Values joined by “and” are separate entries in the source; they are usually repeats but may differ in a detail not shown here. Equal entries are not always repeated. Where two headings read alike, the source gives them in different places.

Tests used:
[1] = Side effects reported by volunteers; conditions: 10 healthy volunteers
CYP3A = CYP3A phenotyping with midazolam; conditions: voriconazole 400 mg 2 h before cocktail
[2] = type: in vivo, human
CYP2D6 = conditions: read-out: inhibition constant (Ki); cited from earlier work
[3] = after a single 75-mg bupropion dose; cited from earlier work
CYP1A2 = target: T1, CYP1A2 (Homo sapiens, UniProt P05177); experiment: CYP1A2 phenotyping with caffeine; conditions: par/caf AUClast ratio in DBS
T1 sequence (P05177 1-516): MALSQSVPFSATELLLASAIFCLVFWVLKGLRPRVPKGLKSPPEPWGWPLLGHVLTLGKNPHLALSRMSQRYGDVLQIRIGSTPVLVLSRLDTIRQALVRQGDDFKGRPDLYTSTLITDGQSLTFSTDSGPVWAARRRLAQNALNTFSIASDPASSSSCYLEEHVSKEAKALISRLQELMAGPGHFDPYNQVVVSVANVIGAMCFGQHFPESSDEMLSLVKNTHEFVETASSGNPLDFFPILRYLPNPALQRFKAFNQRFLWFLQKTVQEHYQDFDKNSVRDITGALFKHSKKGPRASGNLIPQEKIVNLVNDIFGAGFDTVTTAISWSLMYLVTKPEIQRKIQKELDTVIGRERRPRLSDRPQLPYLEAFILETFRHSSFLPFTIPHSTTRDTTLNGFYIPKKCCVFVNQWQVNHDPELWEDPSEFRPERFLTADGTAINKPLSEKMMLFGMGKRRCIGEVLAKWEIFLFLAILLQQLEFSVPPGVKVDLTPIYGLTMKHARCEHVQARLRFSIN

[4] = Comparison of probe Cmax and AUC in DBS and plasma; type: in vivo, human; conditions: for blood plasma ratio: human, capillary whole blood (DBS) versus venous plasma, oral
CYP2C19 = CYP2C19 (Homo sapiens, UniProt P33261); conditions: previous studies; cited from earlier work
CYP2B6 = CYP2B6 phenotyping with bupropion; conditions: rifampicin-mediated induction; matrix not stated
[5] = after a 75-mg single dose, from free plasma fraction and liver/plasma ratio
[6] = after a single 25-mg dose, approximately 3 times less than 75 mg

Sequence of CYP2C19 (P33261 whole entry): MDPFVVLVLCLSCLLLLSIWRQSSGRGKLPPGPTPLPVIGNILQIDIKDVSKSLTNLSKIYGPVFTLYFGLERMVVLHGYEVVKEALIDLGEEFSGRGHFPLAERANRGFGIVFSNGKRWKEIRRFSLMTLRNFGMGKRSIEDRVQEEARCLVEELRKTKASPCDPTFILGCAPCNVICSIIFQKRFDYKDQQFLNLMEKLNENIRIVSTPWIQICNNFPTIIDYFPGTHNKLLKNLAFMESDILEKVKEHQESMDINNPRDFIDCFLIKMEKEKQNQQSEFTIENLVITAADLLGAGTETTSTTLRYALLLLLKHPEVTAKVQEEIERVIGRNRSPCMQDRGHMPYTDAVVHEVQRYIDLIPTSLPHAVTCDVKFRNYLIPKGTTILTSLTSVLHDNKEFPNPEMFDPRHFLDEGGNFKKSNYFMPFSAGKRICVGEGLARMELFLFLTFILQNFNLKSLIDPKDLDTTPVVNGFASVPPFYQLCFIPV

In the case of `C[C@@H](c1ncncc1F)[C@](O)(Cn1cncn1)c1ccc(F)cc1F` [voriconazole], the reported side effects [1] is reported as “four volunteers reported short-lasting troubled vision” and the “effect on CYP3A activity” value (CYP3A) is reported as “significantly inhibited”.
In the case of `CC(NC(C)(C)C)C(O)c1cccc(Cl)c1` (centres unmarked) [erythrohydrobupropion], the “maximal estimated liver concentrations” value [2, 5] is listed as 0.16 µmol/L, the “maximal estimated liver concentrations” value [2, 6] is listed as 0.05 µmol/L and the Ki (CYP2D6) is listed as 1.7 µM. For the same molecule, the maximal plasma concentrations [3] was 0.03 µmol/L.
In the case of `COCCCC/C(=N\OCCN)c1ccc(C(F)(F)F)cc1` [fluvoxamine], the reported side effects [1] is reported as “four volunteers reported short-lasting troubled vision” and the “effect on CYP1A2 activity” value (CYP1A2) is reported as “potently inhibited”.
In the case of `C[C@H](NC(C)(C)C)[C@@H](O)c1cccc(Cl)c1` [threohydrobupropion], the “maximal estimated liver concentrations” value [2, 5] is listed as 1.31 µmol/L, the “maximal estimated liver concentrations” value [2, 6] is listed as 0.44 µmol/L and the Ki (CYP2D6) is listed as 5.4 µM. For the same molecule, the maximal plasma concentrations [3] was 0.24 µmol/L.
With `COc1ccc2c(c1)[C@]13CCCC[C@@H]1[C@H](C2)N(C)CC3` [Dextromethorphan, dextromethorphan] the “Cmax and AUC in DBS vs plasma (mean ratio, blood to plasma ratio)” value ([4]; capillary DBS vs venous plasma) was “higher in DBS”.
With `CC(C(=O)O)c1ccc(-c2ccccc2)c(F)c1` (centres unmarked) [Flurbiprofen, flurbiprofen] the blood plasma ratio [4] was about 0.6.
For `CO[C@H]1/C=C/O[C@@]2(C)Oc3c(C)c(O)c4c(O)c(c(/C=N/N5CCN(C)CC5)c(O)c4c3C2=O)NC(=O)/C(C)=C\C=C\[C@H](C)[C@H](O)[C@@H](C)[C@@H](O)[C@@H](C)[C@H](OC(C)=O)[C@@H]1C` [rifampicin], the “extent of CYP2C19 induction” value (CYP2C19) is listed as 4.2 fold and 2.6 fold and the “effect on CYP1A2 activity” value (CYP1A2) is listed as “slightly, but not significantly, increased”.
`Cc1ncc2n1-c1ccc(Cl)cc1C(c1ccccc1F)=NC2` [Midazolam, midazolam] showed a blood plasma ratio [4] of about 0.6.
In the case of `CC(NC(C)(C)C)C(=O)c1cccc(Cl)c1` (centres unmarked) [Bupropion, bupropion], the “maximal estimated liver concentrations” value [2, 5] is given as 0.73 µmol/L, the “maximal estimated liver concentrations” value [2, 6] is given as 0.24 µmol/L and the Ki (CYP2D6) is given as 21 µM. The “decrease in bupropion AUC” value (CYP2B6) was “approximately threefold”.
For `CC(NC(C)(C)CO)C(=O)c1cccc(Cl)c1` (centres unmarked) [OH-bup, 4′-hydroxybupropion], the “maximal estimated liver concentrations” value [2, 5] is given as 1.13 µmol/L, the “maximal estimated liver concentrations” value [2, 6] is given as 0.38 µmol/L and the Ki (CYP2D6) is given as 13.3 µM. For the same molecule, the maximal plasma concentrations [3] was 0.52 µmol/L.
With `COc1ccc2[nH]c([S+]([O-])Cc3ncc(C)c(OC)c3C)nc2c1` (centres unmarked) [Omeprazole, omeprazole] the blood plasma ratio [4] was about 0.6.
